Source: ChEMBL document CHEMBL3044676, “Effect of Antibiotics on Formation of Aerial Mycelium and Production of Phytotoxins in Streptomyces spp” (2003)
Active and inactive are the calls of the source. The rule behind the calls is not given here.

Key:
Streptomyces alboniger [1] = experiment: Antimicrobial activity against Streptomyces alboniger IFO 12738 assessed as inhibition of aerial mycelial growth at 0.04 ug/disk after 5 days by paper disk method; assay type: functional, organism-based
Streptomyces alboniger [2] = experiment: Antimicrobial activity against Streptomyces alboniger IFO 12738 assessed as inhibition of growth at 0.4 ug/disk after 5 days by paper disk method; assay type: functional; details: IFO 12738, 120 h, read-out: DIZ
Streptomyces alboniger [3] = experiment: Antimicrobial activity against Streptomyces alboniger IFO 12738 assessed as inhibition of aerial mycelial growth at 0.4 ug/disk after 5 days by paper disk method; assay type: functional; details: for zone of inhibition at 0.4 µg/disc: IFO 12738, 120 h, read-out: DIZ
[4] = system: Streptomyces acidiscabies; experiment: Antimicrobial activity against Streptomyces acidiscabies ATCC 4900315 assessed as inhibition of growth at 4 ug/disk after 5 days by paper disk method; assay type: functional; details: for zone of inhibition at 4 µg/disc: ATCC 4900315, 120 h, read-out: DIZ
[5] = system: Streptomyces acidiscabies; experiment: Antimicrobial activity against Streptomyces acidiscabies ATCC 4900315 assessed as inhibition of aerial mycelial growth at 0.4 ug/disk after 5 days by paper disk method; assay type: functional; details: for zone of inhibition at 0.4 µg/disc: ATCC 4900315, 120 h, read-out: DIZ
[6] = system: Streptomyces acidiscabies; experiment: Antimicrobial activity against Streptomyces acidiscabies ATCC 4900315 assessed as inhibition of aerial mycelial growth at 0.04 ug/disk after 5 days by paper disk method; assay type: functional
[7] = system: Streptomyces acidiscabies; experiment: Antimicrobial activity against Streptomyces acidiscabies ATCC 4900315 assessed as inhibition of aerial mycelial growth at 4 ug/disk after 5 days by paper disk method; assay type: functional; details: for zone of inhibition at 4 µg/disc: ATCC 4900315, 120 h, read-out: DIZ
Streptomyces scabiei [8] = experiment: Antimicrobial activity against Streptomyces scabiei ATCC 4917314 assessed as inhibition of growth at 0.4 ug/disk after 5 days by paper disk method; assay type: functional; details: for zone of inhibition at 0.4 µg/disc: ATCC 4917314, 120 h, read-out: DIZ
Streptomyces scabiei [9] = experiment: Antimicrobial activity against Streptomyces scabiei ATCC 4917314 assessed as inhibition of aerial mycelial growth at 0.04 ug/disk after 5 days by paper disk method; assay type: functional; details: for zone of inhibition at 0.04 µg/disc: ATCC 4917314, 120 h, read-out: DIZ
Streptomyces scabiei [10] = experiment: Antimicrobial activity against Streptomyces scabiei ATCC 4917314 assessed as inhibition of aerial mycelial growth at 4 ug/disk after 5 days by paper disk method; assay type: functional; details: for zone of inhibition at 4 µg/disc: ATCC 4917314, 120 h, read-out: DIZ
Streptomyces scabiei [11] = experiment: Antimicrobial activity against Streptomyces scabiei ATCC 4917314 assessed as inhibition of aerial mycelial growth at 0.40 ug/disk after 5 days by paper disk method; assay type: functional; details: for zone of inhibition at 0.4 µg/disc: ATCC 4917314, 120 h, read-out: DIZ
Streptomyces alboniger [12] = experiment: Antimicrobial activity against Streptomyces alboniger IFO 12738 assessed as inhibition of growth at 4 ug/disk after 5 days by paper disk method; assay type: functional; details: IFO 12738, 120 h, read-out: DIZ
Streptomyces alboniger [13] = experiment: Antimicrobial activity against Streptomyces alboniger IFO 12738 assessed as inhibition of aerial mycelial growth at 4 ug/disk after 5 days by paper disk method; assay type: functional; details: for zone of inhibition at 4 µg/disc: IFO 12738, 120 h, read-out: DIZ
Streptomyces scabiei [14] = experiment: Antimicrobial activity against Streptomyces scabiei ATCC 4917314 assessed as inhibition of growth at 4 ug/disk after 5 days by paper disk method; assay type: functional; details: ATCC 4917314, 120 h, read-out: DIZ

Row | Structure (SMILES) | diameter of the inhibition zone (DIZ) (Streptomyces alboniger [1]) | diameter of the inhibition zone (DIZ) [5] | diameter of the inhibition zone (DIZ) [6] | zone of inhibition at 4 µg/disc [7] | diameter of the inhibition zone (DIZ) (Streptomyces scabiei [9]) | zone of inhibition at 4 µg/disc (Streptomyces scabiei [10]) | diameter of the inhibition zone (DIZ) (Streptomyces scabiei [11]) | diameter of the inhibition zone (DIZ) (Streptomyces alboniger [3]) | zone of inhibition at 4 µg/disc [4] | zone of inhibition at 0.4 µg/disc [5] | zone of inhibition at 4 µg/disc (Streptomyces scabiei [14]) | zone of inhibition at 0.4 µg/disc (Streptomyces scabiei [11]) | diameter of the inhibition zone (DIZ) (Streptomyces alboniger [13]) | also measured
1 | CO[C@H]1/C=C/O[C@@]2(C)Oc3c(C)c(O)c4c(O)c(cc(O)c4c3C2=O)NC(=O)/C(C)=C\C=C\[C@H](C)[C@H](O)[C@@H](C)[C@@H](O)[C@@H](C)[C@H](OC(C)=O)[C@@H]1C [RIFAMYCIN] | inactive | inactive | inactive | 12 mm | inactive | 11 mm | inactive | – | – | – | – | – | – | zone of inhibition at 0.4 µg/disc (Streptomyces alboniger [2]): 11 mm; zone of inhibition at 0.4 µg/disc (Streptomyces alboniger [3]): 21 mm; diameter of the inhibition zone (DIZ) [4]: inactive; diameter of the inhibition zone (DIZ) (Streptomyces scabiei [8]): inactive
2 | CO[C@@H]1[C@@H](O[C@@H]2O[C@H](C)[C@@H](O[C@H]3C[C@@](C)(O)[C@@H](OC(=O)CC(C)C)[C@H](C)O3)[C@H](N(C)C)[C@H]2O)[C@@H](CC=O)C[C@@H](C)[C@@H](O)/C=C/C=C/C[C@@H](C)OC(=O)C[C@H]1OC(C)=O [JOSAMYCIN] | inactive | – | inactive | 17 mm | – | 29 mm | – | inactive | 10 mm | 13 mm | 21 mm | 17 mm | – | zone of inhibition at 4 µg/disc (Streptomyces alboniger [12]): 14 mm; zone of inhibition at 4 µg/disc (Streptomyces alboniger [13]): 15 mm; zone of inhibition at 0.4 µg/disc (Streptomyces scabiei [8]): 11 mm; zone of inhibition at 0.04 µg/disc (Streptomyces scabiei [9]): 15 mm
3 | CN[C@@H]1[C@H](O[C@H]2[C@H](O[C@H]3[C@H](O)[C@@H](O)[C@H](N=C(N)N)[C@@H](O)[C@@H]3N=C(N)N)O[C@@H](C)[C@]2(O)C=O)O[C@@H](CO)[C@H](O)[C@H]1O [STREPTOMYCIN] | inactive | inactive | inactive | – | inactive | 28 mm | – | inactive | – | – | 18 mm | 19 mm | inactive | zone of inhibition at 0.4 µg/disc (Streptomyces alboniger [2]): 15 mm; diameter of the inhibition zone (DIZ) [7]: inactive; zone of inhibition at 0.4 µg/disc (Streptomyces scabiei [8]): 13 mm
4 | N=C(N)NCC(O)CC(O)(C(=O)O)[C@@H]1O[C@@H](N2C=C(CO)C(N)=NC2O)C=C[C@@H]1NC(=O)[C@@H](N)CO (stereo not given in full) [MILDIOMYCIN] | inactive | – | inactive | 28 mm | inactive | – | – | inactive | 22 mm | 11 mm | – | 12 mm | inactive | diameter of the inhibition zone (DIZ) (Streptomyces scabiei [10]): inactive
5 | COc1ccc(C[C@H](N)C(=O)N[C@H]2[C@@H](O)[C@H](n3cnc4c(N(C)C)ncnc43)O[C@@H]2CO)cc1 [PUROMYCIN] | inactive | inactive | inactive | 20 mm | inactive | – | inactive | inactive | – | – | – | – | inactive | diameter of the inhibition zone (DIZ) (Streptomyces scabiei [10]): inactive
6 | C=C(NC(=O)C(=C)NC(=O)c1csc(C2=N[C@@H]3c4csc(n4)[C@H]4NC(=O)c5csc(n5)[C@H]([C@](C)(O)[C@@H](C)O)NC(=O)[C@H]5CSC(=N5)/C(=C/C)NC(=O)[C@H]([C@@H](C)O)NC(=O)c5csc(n5)[C@]3(CC2)NC(=O)[C@H](C)NC(=O)C(=C)NC(=O)[C@H](C)NC(=O)[C@H]([C@@H](C)CC)N[C@@H]2C=Cc3c([C@H](C)O)cc(nc3[C@H]2O)C(=O)O[C@@H]4C)n1)C(N)=O [THIOSTREPTON] | inactive | – | inactive | 24 mm | inactive | 12 mm | inactive | inactive | 13 mm | 11 mm | – | – | inactive | zone of inhibition at 0.4 µg/disc (Streptomyces alboniger [2]): 14 mm
7 | CO[C@@H]1[C@@H](OC(N)=O)[C@@H](O)[C@H](Oc2ccc3c(O)c(NC(=O)c4ccc(O)c(CC=C(C)C)c4)c(=O)oc3c2C)OC1(C)C [NOVOBIOCIN] | inactive | – | inactive | 39 mm | inactive | 44 mm | – | – | 18 mm | 14 mm | 26 mm | 28 mm | – | zone of inhibition at 0.4 µg/disc (Streptomyces alboniger [3]): 11 mm; zone of inhibition at 4 µg/disc (Streptomyces alboniger [12]): 21 mm; zone of inhibition at 0.4 µg/disc (Streptomyces scabiei [8]): 17 mm
8 | CC1(C)S[C@@H]2[C@H](NC(=O)[C@H](N)c3ccccc3)C(=O)N2[C@H]1C(=O)O [AMPICILLIN] | inactive | inactive | inactive | 16 mm | inactive | 16 mm | inactive | inactive | – | – | – | – | – | diameter of the inhibition zone (DIZ) [4]: inactive
9 | CN(CC[C@H](N)CC(=O)N[C@H]1CC[C@H](n2ccc(N)nc2=O)O[C@@H]1C(=O)O)C(=N)N [BLASTADIN S] | inactive | inactive | inactive | 9 mm | inactive | 23 mm | – | inactive | – | – | – | 10 mm | inactive | –
10 | CN(C)[C@@H]1C(O)=C(C(N)=O)C(=O)[C@@]2(O)C(O)=C3C(=O)c4c(O)cccc4[C@@](C)(O)[C@H]3[C@H](O)[C@@H]12 [OXYTETRACYCLINE] | inactive | – | inactive | – | – | 37 mm | – | inactive | 34 mm | 16 mm | 13 mm | 13 mm | inactive | diameter of the inhibition zone (DIZ) [7]: inactive; zone of inhibition at 0.04 µg/disc (Streptomyces scabiei [9]): 10 mm
11 | CO[C@@H]1[C@H](O)C[C@@H](O[C@@H]2C[C@H](Oc3cc4cc5c(c(O)c4c(O)c3C)C(=O)[C@@H](O[C@H]3C[C@@H](O[C@H]4C[C@@H](O[C@H]6C[C@](C)(O)[C@@H](OC(C)=O)[C@H](C)O6)[C@H](O)[C@@H](C)O4)[C@H](O)[C@@H](C)O3)[C@H]([C@H](OC)C(=O)[C@@H](O)[C@@H](C)O)C5)O[C@H](C)[C@@H]2OC(C)=O)O[C@@H]1C [CHROMOMYCIN A3] | inactive | – | – | 26 mm | inactive | 11 mm | inactive | inactive | – | 19 mm | – | – | inactive | zone of inhibition at 0.04 µg/disc ([6]; ATCC 4900315, 120 h, read-out: DIZ): 13 mm
12 | C[C@@H]1O[C@@H]1P(=O)(O)O [FOSFOMYCIN] | inactive | inactive | inactive | – | – | 17 mm | – | inactive | – | – | – | 16 mm | inactive | diameter of the inhibition zone (DIZ) [7]: inactive; zone of inhibition at 0.04 µg/disc (Streptomyces scabiei [9]): 16 mm
13 | O=C(N[C@H](CO)[C@H](O)c1ccc([N+](=O)[O-])cc1)C(Cl)Cl [CHLORAMPHENICOL] | inactive | inactive | inactive | 10 mm | inactive | 29 mm | – | inactive | – | – | 15 mm | 13 mm | – | zone of inhibition at 4 µg/disc (Streptomyces alboniger [12]): 16 mm; zone of inhibition at 4 µg/disc (Streptomyces alboniger [13]): 44 mm
14 | CCC[C@@H]1C[C@@H](C(=O)N[C@@H]([C@H]2O[C@H](SC)[C@H](O)[C@@H](O)[C@H]2O)[C@@H](C)O)N(C)C1 [LINCOMYCIN] | – | inactive | inactive | – | – | 40 mm | – | – | – | – | – | 34 mm | – | zone of inhibition at 0.4 µg/disc (Streptomyces alboniger [3]): 18 mm; zone of inhibition at 4 µg/disc (Streptomyces alboniger [12]): 12 mm; zone of inhibition at 4 µg/disc (Streptomyces alboniger [13]): 40 mm; diameter of the inhibition zone (DIZ) [7]: inactive; zone of inhibition at 0.04 µg/disc (Streptomyces scabiei [9]): 20 mm
